Experimental data as given in US20260274829A1, “NEW E3 UBIQUITIN LIGASE LIGAND, PROTEIN DEGRADATION AGENT AND USE THEREOF” (GLUETACS THERAPEUTICS (SHANGHAI) CO., LTD., priority 2023, published 2026).

Molecular target: T1, human Cereblon WT GST-tagged protein (Homo sapiens, UniProt Q96SW2)
T1 construct: purchased CISBIO 64BDCRBNPEH
Test: CRBN binding, HTRF CEREBLON BINDING kit
Details: CRBN binding, HTRF CEREBLON BINDING kit
Outline: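 HTRF competition in which test compounds displace a Thalidomide-Re tracer from GST-tagged human Cereblon WT, detected with a GST Eu antibody. Incubation lasted 3 hours at room temperature, with emission read at 620 and 665 nm. Inhibition rate was derived from 665/620 ratios relative to blank and solvent control wells.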

T1 sequence (Q96SW2 whole entry): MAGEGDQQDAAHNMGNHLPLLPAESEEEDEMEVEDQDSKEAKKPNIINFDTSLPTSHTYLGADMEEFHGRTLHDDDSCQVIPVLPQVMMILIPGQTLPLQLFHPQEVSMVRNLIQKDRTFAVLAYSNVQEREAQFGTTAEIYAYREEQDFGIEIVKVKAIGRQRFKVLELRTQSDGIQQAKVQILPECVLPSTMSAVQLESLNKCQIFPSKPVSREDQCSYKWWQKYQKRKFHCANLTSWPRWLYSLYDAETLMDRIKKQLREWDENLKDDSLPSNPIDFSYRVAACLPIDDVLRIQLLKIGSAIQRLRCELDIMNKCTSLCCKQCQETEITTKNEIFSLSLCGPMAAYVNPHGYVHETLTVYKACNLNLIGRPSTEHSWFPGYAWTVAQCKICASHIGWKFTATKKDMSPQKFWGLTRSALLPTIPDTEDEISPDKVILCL

| SMILES | IC50 [nM] |
| --- | --- |
| CC(C)(O)c1cc2nc(C3CCN(Cc4cccc(N5CCC(=O)NC5=O)c4)CC3)sc2cc1NC(=O)c1cccc(C(F)(F)F)n1 [GT-05765, N-(2-(1-(3-(2,4-dioxotetrahydropyrimidin-1(2H)-yl)benzyl)piperidin-4-yl)-5-(2-hydroxypropan-2-yl)benzo[d]thiazol-6-yl)-6-(trifluoromethyl)picolinamide] | 500 to 1000 |
| CC(C)(O)c1cc2nc(C3CCN(Cc4ccc(N5CCC(=O)NC5=O)cc4)CC3)oc2cc1NC(=O)c1cccc(C(F)(F)F)n1 [GT-05772, N-(2-(1-(4-(2,4-dioxotetrahydropyrimidin-1(2H)-yl)benzyl)piperidin-4-yl)-5-(2-hydroxypropan-2-yl)benzo[d]oxazol-6-yl)-6-(trifluoromethyl)picolinamide] | 1000 to 1900 |
| CC(C)(O)c1cc2nc(C3CCN(Cc4cccc(N5CCC(=O)NC5=O)c4)CC3)oc2cc1NC(=O)c1cccc(C(F)(F)F)n1 [GT-05773, N-(2-(1-(3-(2,4-dioxotetrahydropyrimidin-1(2H)-yl)benzyl)piperidin-4-yl)-5-(2-hydroxypropan-2-yl)benzo[d]oxazol-6-yl)-6-(trifluoromethyl)picolinamide] | 500 to 1000 |
| CC(C)(O)c1cc2nc(C3CCN(Cc4ccc(N5CCC(=O)NC5=O)cn4)CC3)oc2cc1NC(=O)c1cccc(C(F)(F)F)n1 [GT-05774, N-(2-(1-((5-(2,4-dioxotetrahydropyrimidin-1(2H)-yl)pyridin-2-yl)methyl)piperidin-4-yl)-5-(2-hydroxypropan-2-yl)benzo[d]oxazol-6-yl)-6-(trifluoromethyl)picolinamide] | 1000 to 1900 |
| O=C1CCC(Nc2cccc(CN3CCC(n4cc(NC(=O)c5cnn6ccc(N7CCOCC7)nc56)c(C(F)F)n4)CC3)c2)C(=O)N1 (stereo not drawn) [GT-05801, N-(3-(difluoromethyl)-1-(1-(3-((2,6-dioxopiperidin-3-yl)amino)benzyl)piperidin-4-yl)-1H-pyrazol-4-yl)-5-morpholinopyrazolo[1,5-a]pyrimidine-3-carboxamide] | 500 to 1000 |
| Cc1cc(-c2nc(C(=O)Nc3cc4oc(N5CCN(Cc6ccc(N7CCC(=O)NC7=O)cc6)CC5)nc4nc3N3CC[C@@H](O)C3)co2)ccn1 [GT-05807, (R)—N-(2-(4-(4-(2,4-dioxotetrahydropyrimidin-1(2H)-yl)benzyl)piperazin-1-yl)-5-(3-hydroxypyrrolidin-1-yl)oxazolo[4,5-b]pyridin-6-yl)-2-(2-methylpyridin-4-yl)oxazole-4-carboxamide] | 500 to 1000 |
| Cc1cc(-c2nc(C(=O)Nc3cc4oc(N5CCN(Cc6cccc(N7CCC(=O)NC7=O)c6)CC5)nc4nc3N3CC[C@@H](O)C3)co2)ccn1 [GT-05808, (R)—N-(2-(4-(3-(2,4-dioxotetrahydropyrimidin-1(2H)-yl)benzyl)piperazin-1-yl)-5-(3-hydroxypyrrolidin-1-yl)oxazolo[4,5-b]pyridin-6-yl)-2-(2-methylpyridin-4-yl)oxazole-4-carboxamide] | 500 to 1000 |
| O=C1CCN(c2cccc(CN3CCN(c4ccc(Nc5ncc6nc(Nc7ccccc7)n(C7CCCC7)c6n5)cc4)CC3)c2)C(=O)N1 [GT-05838, 1-(3-((4-(4-((9-cyclopentyl-8-(phenylamino)-9H-purin-2-yl)amino)phenyl)piperazin-1-yl)methyl)phenyl)dihydropyrimidine-2,4(1H,3H)-dione] | 500 to 1000 |
| O=C1CCN(c2ccc(CN3CCN(c4ccc(Nc5ncc6nc(Nc7ccccc7)n(C7CCCC7)c6n5)cc4)CC3)nc2)C(=O)N1 [GT-05839, 1-(6-((4-(4-((9-cyclopentyl-8-(phenylamino)-9H-purin-2-yl)amino)phenyl)piperazin-1-yl)methyl)pyridin-3-yl)dihydropyrimidine-2,4(1H,3H)-dione] | 500 to 1000 |
| CN(Cc1cccc(N2CCC(=O)NC2=O)c1)C1CCN(c2ccc(Nc3ncc4nc(Nc5ccccc5)n(C5CCCC5)c4n3)cc2)CC1 [GT-05870, 1-(3-(((1-(4-((9-cyclopentyl-8-(phenylamino)-9H-purin-2-yl)amino)phenyl)piperidin-4-yl)(methyl)amino)methyl)phenyl)dihydropyrimidine-2,4(1H,3H)-dione] | 500 to 1000 |
| O=C1CCN(c2ccc(CN3CCN(C4CCN(c5ccc(Nc6ncc7nc(Nc8ccccc8)n(C8CCCC8)c7n6)cc5)CC4)CC3)cc2)C(=O)N1 [GT-05917, 1-(4-((4-(1-(4-((9-cyclopentyl-8-(phenylamino)-9H-purin-2-yl)amino)phenyl)piperidin-4-yl)piperazin-1-yl)methyl)phenyl)dihydropyrimidine-2,4(1H,3H)-dione] | 500 to 1000 |

More lines, now with the values ahead:

| IC50 [nM] | SMILES |
| --- | --- |
| 500 to 1000 | CC(C)(O)c1cc2nn(C3CCN(Cc4ccc(N5CCC(=O)NC5=O)cc4)CC3)cc2cc1NC(=O)c1cccc(C(F)(F)F)n1 [GT-05754, N-(2-(1-(4-(2,4-dioxotetrahydropyrimidin-1(2H)-yl)benzyl)piperidin-4-yl)-6-(2-hydroxypropan-2-yl)-2H-indazol-5-yl)-6-(trifluoromethyl)picolinamide] |
| 500 to 1000 | CC(C)(O)c1cc2nn(C3CCN(Cc4cccc(N5CCC(=O)NC5=O)c4)CC3)cc2cc1NC(=O)c1cccc(C(F)(F)F)n1 [GT-05755, N-(2-(1-(3-(2,4-dioxotetrahydropyrimidin-1(2H)-yl)benzyl)piperidin-4-yl)-6-(2-hydroxypropan-2-yl)-2H-indazol-5-yl)-6-(trifluoromethyl)picolinamide] |
| 500 to 1000 | CC(C)(O)c1cc2nn(C3CCN(Cc4ccc(N5CCC(=O)NC5=O)cn4)CC3)cc2cc1NC(=O)c1cccc(C(F)(F)F)n1 [GT-05756, N-(2-(1-((5-(2,4-dioxotetrahydropyrimidin-1(2H)-yl)pyridin-2-yl)methyl)piperidin-4-yl)-6-(2-hydroxypropan-2-yl)-2H-indazol-5-yl)-6-(trifluoromethyl)picolinamide] |
| < 500 | O=C1CCN(c2ccc(CN3CCC(n4cc(NC(=O)c5cnn6ccc(N7CCOCC7)nc56)c(C(F)F)n4)CC3)cc2)C(=O)N1 [GT-05798, N-(3-(difluoromethyl)-1-(1-(4-(2,4-dioxotetrahydropyrimidin-1(2H)-yl)benzyl)piperidin-4-yl)-1H-pyrazol-4-yl)-5-morpholinopyrazolo[1,5-a]pyrimidine-3-carboxamide] |
| < 500 | O=C1CCN(c2ccc(CN3CCC(n4cc(NC(=O)c5cnn6ccc(N7CCOCC7)nc56)c(C(F)F)n4)CC3)nc2)C(=O)N1 [GT-05799, N-(3-(difluoromethyl)-1-(1-((5-(2,4-dioxotetrahydropyrimidin-1(2H)-yl)pyridin-2-yl)methyl)piperidin-4-yl)-1H-pyrazol-4-yl)-5-morpholinopyrazolo[1,5-a]pyrimidine-3-carboxamide] |
| < 500 | O=C1CCC(Nc2cccc(CN3CCN(c4ccc(Nc5ncc6nc(Nc7ccccc7)n(C7CCCC7)c6n5)cc4)CC3)c2)C(=O)N1 (stereo not drawn) [GT-05841, 3-((3-((4-(4-((9-cyclopentyl-8-(phenylamino)-9H-purin-2-yl)amino)phenyl)piperazin-1-yl)methyl)phenyl)amino)piperidine-2,6-dione] |
| < 500 | O=C1CCC(c2ccc(CN3CCN(C4CCN(c5ccc(Nc6ncc7nc(Nc8ccccc8)n(C8CCCC8)c7n6)cc5)CC4)CC3)cc2)C(=O)N1 (stereo not drawn) [GT-05915, 3-(4-((4-(1-(4-((9-cyclopentyl-8-(phenylamino)-9H-purin-2-yl)amino)phenyl)piperidin-4-yl)piperazin-1-yl)methyl)phenyl)piperidine-2,6-dione] |
